Results: ChEMBL document CHEMBL6134893, “The Exploration of Indole-Based LSD1-Targeted Inhibitors for Enhanced Immune Response in Gastric Cancer via the PD-L1/PD-1 Axis” (J Med Chem, 2025)

Biological target: T1, Lysine-specific histone demethylase 1A (Homo sapiens, UniProt O60341)
Experiment: Inhibition of recombinant LSD1 (unknown origin) extracted from Escherichia coli BL21 (DE3) using H3K4me2 peptide as substrate in presence of […] by Amplex Red assay
Conditions: not given

Going from `C=C1C(=O)OCC1C(O)c1cn(S(=O)(=O)c2ccc(N3CCCN(C(=O)OC(C)(C)C)CC3)c([N+](=O)[O-])c2)c2ccc(Cl)cc12` (configuration not stated) to `C=C1C(=O)OCC1C(O)c1cn(S(=O)(=O)c2ccc(N3CCN(C(=O)OC(C)(C)C)CC3)c([N+](=O)[O-])c2)c2ccc(Cl)cc12` (configuration not stated), the IC50 falls from 4960 nM to 459 nM (11-fold). The second is the more potent here.

`C=C1C(=O)OCC1C(O)c1cn(S(=O)(=O)c2ccccc2Br)c2ccc(Cl)cc12` (configuration not stated) and `C=C1C(=O)OCC1C(O)c1cn(S(=O)(=O)c2ccccc2F)c2ccc(Cl)cc12` (configuration not stated) are within 1.5-fold of each other in IC50: 161 nM for the first, 219 nM for the second.

`C=C1C(=O)OCC1C(O)c1cn(S(=O)(=O)CCC)c2ccc(Cl)cc12` (configuration not stated) and `C=C1C(=O)OCC1C(O)c1cn(S(C)(=O)=O)c2ccc(Cl)cc12` (configuration not stated) are within 1.5-fold of each other in IC50: 6650 nM for the first, 9130 nM for the second.

`C=C1C(=O)OCC1C(O)c1ccn(S(=O)(=O)c2ccc(C)cc2)c1` (configuration not stated) and `C=C1C(=O)OCC1C(O)c1ccn(S(=O)(=O)c2ccc(Cl)cc2)c1` (configuration not stated) cannot be ordered by IC50: over 10000 nM for the first, over 10000 nM for the second.

`C=C1C(=O)OC/C1=C\c1cn(S(=O)(=O)c2ccc(Cl)cc2)c2ccc(Cl)cc12` and `C=C1C(=O)OCC1C(=O)c1cn(S(=O)(=O)c2ccc(Cl)cc2)c2ccc(Cl)cc12` (configuration not stated) cannot be ordered by IC50: over 10000 nM for the first, over 10000 nM for the second.

`C=C1C(=O)OCC1C(O)c1cn(S(=O)(=O)c2ccc(Cl)cc2)c2ccc(Cl)cc12` (configuration not stated) and `C=C1C(=O)OCC1C(O)c1cn(S(=O)(=O)c2ccc(F)cc2)c2ccc(Cl)cc12` (configuration not stated) are within 1.5-fold of each other in IC50: 929 nM for the first, 1340 nM for the second.

Compared with `C=C1C(=O)OCC1C(O)c1cn(S(=O)(=O)c2ccc(NCC(C)C)c([N+](=O)[O-])c2)c2ccc(Cl)cc12` (configuration not stated), `C=C1C(=O)OCC1C(O)c1cn(S(=O)(=O)c2ccc(NCCC)c([N+](=O)[O-])c2)c2ccc(Cl)cc12` (configuration not stated) is 5.1-fold higher in IC50: 131 nM for the first, 664 nM for the second.

`C=C1C(=O)OCC1C(O)c1cn(S(=O)(=O)c2ccc(C(F)(F)F)cc2)c2ccc(Cl)cc12` (configuration not stated) and `C=C1C(=O)OCC1C(O)c1cn(S(=O)(=O)c2ccc(OC(F)(F)F)cc2)c2ccc(Cl)cc12` (configuration not stated) are within 1.5-fold of each other in IC50: 1460 nM for the first, 1420 nM for the second.

`C=C1C(=O)OCC1C(O)c1cn(S(=O)(=O)c2ccc(N3CCCC3)c([N+](=O)[O-])c2)c2ccc(Cl)cc12` (configuration not stated) and `C=C1C(=O)OCC1C(O)c1cn(S(=O)(=O)c2ccc(N3CCCCC3)c([N+](=O)[O-])c2)c2ccc(Cl)cc12` (configuration not stated) are within 1.5-fold of each other in IC50: 2480 nM for the first, 2130 nM for the second.

Compared with `C=C1C(=O)OCC1C(O)c1cn(S(=O)(=O)c2cccc([N+](=O)[O-])c2)c2ccc(Cl)cc12` (configuration not stated), `C=C1C(=O)OCC1C(O)c1cn(S(=O)(=O)c2ccc([N+](=O)[O-])cc2)c2ccc(Cl)cc12` (configuration not stated) is 13-fold higher in IC50: 107 nM for the first, 1380 nM for the second.

First: C=C1C(=O)OCC1C(O)c1ccn(S(=O)(=O)c2ccc(Br)cc2)c1 (configuration not stated)
Second: C=C1C(=O)OCC1C(O)c1cn(S(=O)(=O)c2ccc(Br)cc2)c2ccc(Cl)cc12 (configuration not stated)
The IC50 of the first is higher: over 10000 nM for the first, 1150 nM for the second.

`C=C1C(=O)OCC1C(O)c1cn(S(=O)(=O)c2ccc(N3CCN(CC)CC3)c([N+](=O)[O-])c2)c2ccc(Cl)cc12` (configuration not stated) and `C=C1C(=O)OCC1C(O)c1cn(S(=O)(=O)c2ccc(N3CCN(CCO)CC3)c([N+](=O)[O-])c2)c2ccc(Cl)cc12` (configuration not stated) are within 1.5-fold of each other in IC50: 287 nM for the first, 284 nM for the second.

Going from `C=C1C(=O)OCC1C(O)c1cn(S(=O)(=O)C2CC2)c2ccc(Cl)cc12` (configuration not stated) to `C=C1C(=O)OCC1C(O)c1cn(S(=O)(=O)c2ccccc2)c2ccc(Cl)cc12` (configuration not stated), the IC50 falls from 5680 nM to 1110 nM (5.1-fold). The second is the more potent here.

First: C=C1C(=O)OCC1C(O)c1cn(S(=O)(=O)c2ccc(N3CCN(C)CC3)c([N+](=O)[O-])c2)c2ccc(Cl)cc12 (configuration not stated)
Second: C=C1C(=O)OCC1C(O)c1cn(S(=O)(=O)c2ccc(Cl)c([N+](=O)[O-])c2)c2ccc(Cl)cc12 (configuration not stated)
The IC50 of the first is 4.7-fold higher: 463 nM for the first, 99 nM for the second.

Going from `C=C1C(=O)OCC1C(O)c1cn(S(=O)(=O)c2ccc(CN3CCOCC3)cc2)c2ccc(Cl)cc12` (configuration not stated) to `C=C1C(=O)OCC1C(O)c1cn(S(=O)(=O)c2ccc(CBr)cc2)c2ccc(Cl)cc12` (configuration not stated), the IC50 rises from 606 nM to 933 nM (1.5-fold).

Going from `C=C1C(=O)OCC1C(O)c1cn(S(=O)(=O)c2ccc(Cl)cc2Cl)c2ccc(Cl)cc12` (configuration not stated) to `C=C1C(=O)OCC1C(O)c1cn(S(=O)(=O)c2ccc(Cl)c(Cl)c2)c2ccc(Cl)cc12` (configuration not stated), the IC50 rises from 363 nM to 579 nM (1.6-fold). The first is the more potent here.

Compared with `C=C1C(=O)OCC1C(O)c1cn(S(=O)(=O)c2c(Cl)cccc2Cl)c2ccc(Cl)cc12` (configuration not stated), `C=C1C(=O)OCC1C(O)c1cn(S(=O)(=O)c2ccccc2Cl)c2ccc(Cl)cc12` (configuration not stated) is 2.6-fold lower in IC50: 968 nM for the first, 366 nM for the second. The second is the more potent here.

First: C=C1C(=O)OCC1C(O)c1cn(S(=O)(=O)c2ccccc2[N+](=O)[O-])c2ccc(Cl)cc12 (configuration not stated)
Second: C=C1C(=O)OCC1C(O)c1cn(S(=O)(=O)c2ccccc2C)c2ccc(Cl)cc12 (configuration not stated)
The IC50 of the first is 2.9-fold higher: 755 nM for the first, 261 nM for the second. The second is the more potent here.

`C=C1C(=O)OCC1C(O)c1cn(S(=O)(=O)c2ccc(CN3CCN(C(=O)OC(C)(C)C)CC3)cc2)c2ccc(Cl)cc12` (configuration not stated) and `C=C1C(=O)OCC1C(O)c1cn(S(=O)(=O)c2ccc(OC)cc2)c2ccc(Cl)cc12` (configuration not stated) are within 1.5-fold of each other in IC50: 1180 nM for the first, 855 nM for the second.

`O=S(=O)(c1ccc(Cl)cc1)n1cc(CNCC2CC2)c2cc(Cl)ccc21` and `O=S(=O)(c1ccc(Cl)cc1)n1cc(CNC2CC2)c2cc(Cl)ccc21` cannot be ordered by IC50: over 10000 nM for the first, over 10000 nM for the second.

Going from `C=C1C(=O)OCC1C(O)c1cn(S(=O)(=O)c2ccc(N3C[C@@H]4C[C@H]3CN4C(=O)OC(C)(C)C)c([N+](=O)[O-])c2)c2ccc(Cl)cc12` (some centres not stated) to `C=C1C(=O)OCC1C(O)c1cn(S(=O)(=O)c2ccc(N3CCC(NC(=O)OC(C)(C)C)C3)c([N+](=O)[O-])c2)c2ccc(Cl)cc12` (configuration not stated), the IC50 falls from 3350 nM to 440 nM (7.6-fold). The second is the more potent here.

Going from `C=C1C(=O)OCC1C(O)c1cn(S(=O)(=O)c2cccc(C(F)(F)F)c2)c2ccc(Cl)cc12` (configuration not stated) to `C=C1C(=O)OCC1C(O)c1cn(S(=O)(=O)c2ccc(F)c(C(F)(F)F)c2)c2ccc(Cl)cc12` (configuration not stated), the IC50 rises from 213 nM to 654 nM (3.1-fold).

Compared with `C=C1C(=O)OCC1C(O)c1cn(S(=O)(=O)c2ccc(N3CCCC(NC(=O)OC(C)(C)C)C3)c([N+](=O)[O-])c2)c2ccc(Cl)cc12` (configuration not stated), `C=C1C(=O)OCC1C(O)c1cn(S(=O)(=O)c2ccc(NC)c([N+](=O)[O-])c2)c2ccc(Cl)cc12` (configuration not stated) is 8-fold lower in IC50: 714 nM for the first, 89 nM for the second. The second is the more potent here.

Going from `C=C1C(=O)OCC1C(O)c1cn(S(=O)(=O)c2ccc(N(CCC)CCC)c([N+](=O)[O-])c2)c2ccc(Cl)cc12` (configuration not stated) to `C=C1C(=O)OCC1C(O)c1cn(S(=O)(=O)c2ccc(Cl)c(N)c2)c2ccc(Cl)cc12` (configuration not stated), the IC50 rises from 3390 nM to over 5000 nM. The first is the more potent here.

Going from `C=C1C(=O)OCC1C(O)c1cn(S(=O)(=O)c2ccc(CNCc3ccc(Cl)cc3)cc2)c2ccc(Cl)cc12` (configuration not stated) to `C=C1C(=O)OCC1C(O)c1cn(S(=O)(=O)c2cccc(Cl)c2)c2ccc(Cl)cc12` (configuration not stated), the IC50 falls from 2340 nM to 746 nM (3.1-fold).

Biological target: T1, Lysine-specific histone demethylase 1A
Experiment: Inhibition of LSD1 in human MKN-45 cells assessed as accumulation of membrane PD-L1 at 2 uM incubated for 5 days
Type: cell-based
Parameters: scale not given: the % may be the effect or the level left
Conditions: time 5.0 day

`N[C@H]1CC[C@H](N[C@@H]2C[C@H]2c2ccccc2)CC1` gave an Activity of 48.5%.

Biological target: Lysine-specific histone demethylase 1A (Mus musculus) (UniProt Q6ZQ88)
Experiment: Inhibition of LSD1 in mouse MFC cells assessed as accumulation of membrane PD-L1 at 2 uM incubated for 5 days
Type: cell-based
Parameters: scale not given: the % may be the effect or the level left
Conditions: time 5.0 day

In the case of `N[C@H]1CC[C@H](N[C@@H]2C[C@H]2c2ccccc2)CC1`, the Activity is reported as 40.4%.
